The values below are quoted from earlier work in article PMC6630532 (ACS Infectious Diseases, 2019).

pIC50: −log10 of the molar value.

The term pIC50 denotes the IC50 on a negative log10 scale, so that one unit is a factor of ten.

The data set has as its system bacteria. Conditions: read-out: IC50 (in vitro antimicrobial effect of killing 50% of the bacteria).

As for H-TGRAKRRMQYNRR-NH2 [UBI29–41], the pIC50 was 4.70.
